Measurements as given in publication PMC8225519, “A semi-mechanistic exposure–response model to assess the effects of verinurad, a potent URAT1 inhibitor, on serum and urine uric acid in patients with hyperuricemia-associated diseases” (Journal of Pharmacokinetics and Pharmacodynamics, 2021).
Values joined by “and” are separate entries in the source; they are usually repeats but may differ in a detail not shown here. Identical values can stand only once. “Also recorded” adds a separate entry of the source. Like-named read-outs stand apart in the source and are kept apart here.

What was measured:
xanthine oxidase (XO) [1] = biological target: T1, xanthine oxidase (XO) (Homo sapiens, UniProt P47989); test: Semi-mechanistic exposure-response uric acid model: XOI inhibition of uric acid production rate (clinical sUA/uUA data); type: in vivo
T1 construct: from tissue

xanthine oxidase (XO) [2] = biological target: T1, xanthine oxidase (XO); design: method as in Aksenov et al. 2018 [23]; conditions: fixed, not estimated; ref Aksenov et al. 2018 [23]; cited from earlier work
[3] = Population pharmacokinetic model, oxypurinol; type: in vivo, human
Text: CL = CLTYP * (1 + log(1+k*DOSE_[…]))
Where CLTYP is typical value of clearance and k is a coefficient for verinurad dose (1/mg).

URAT1 [4] = biological target: T2, URAT1 (Homo sapiens, UniProt Q96S37); design: method as in PMID 21148271, PMID 18492088; conditions: fixed, not estimated; consistent with FEUA in URAT1 loss of function mutations; cited from earlier work
T2 construct: from tissue; host or cells: kidney (proximal tubule) of human study subjects, in vivo
T2 sequence (Q96S37 1-553): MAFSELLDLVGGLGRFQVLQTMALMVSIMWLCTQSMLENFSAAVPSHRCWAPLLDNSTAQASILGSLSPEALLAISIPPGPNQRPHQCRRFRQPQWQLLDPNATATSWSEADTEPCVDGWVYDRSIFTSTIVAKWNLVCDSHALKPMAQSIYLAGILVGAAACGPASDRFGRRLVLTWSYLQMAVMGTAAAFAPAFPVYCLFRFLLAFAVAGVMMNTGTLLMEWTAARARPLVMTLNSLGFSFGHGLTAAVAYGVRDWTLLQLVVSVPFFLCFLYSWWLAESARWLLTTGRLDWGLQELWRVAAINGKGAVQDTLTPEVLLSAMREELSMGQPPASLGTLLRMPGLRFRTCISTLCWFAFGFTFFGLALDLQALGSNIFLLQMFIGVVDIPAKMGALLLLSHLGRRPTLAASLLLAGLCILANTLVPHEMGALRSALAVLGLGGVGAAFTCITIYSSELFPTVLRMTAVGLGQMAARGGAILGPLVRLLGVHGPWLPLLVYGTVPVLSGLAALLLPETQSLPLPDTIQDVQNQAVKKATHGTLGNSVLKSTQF

URAT1 [5] = biological target: T2, URAT1; test: Semi-mechanistic exposure-response uric acid model: verinurad inhibition of uric acid reabsorption (clinical sUA/uUA data); type: in vivo

T1 sequence (P47989 whole entry): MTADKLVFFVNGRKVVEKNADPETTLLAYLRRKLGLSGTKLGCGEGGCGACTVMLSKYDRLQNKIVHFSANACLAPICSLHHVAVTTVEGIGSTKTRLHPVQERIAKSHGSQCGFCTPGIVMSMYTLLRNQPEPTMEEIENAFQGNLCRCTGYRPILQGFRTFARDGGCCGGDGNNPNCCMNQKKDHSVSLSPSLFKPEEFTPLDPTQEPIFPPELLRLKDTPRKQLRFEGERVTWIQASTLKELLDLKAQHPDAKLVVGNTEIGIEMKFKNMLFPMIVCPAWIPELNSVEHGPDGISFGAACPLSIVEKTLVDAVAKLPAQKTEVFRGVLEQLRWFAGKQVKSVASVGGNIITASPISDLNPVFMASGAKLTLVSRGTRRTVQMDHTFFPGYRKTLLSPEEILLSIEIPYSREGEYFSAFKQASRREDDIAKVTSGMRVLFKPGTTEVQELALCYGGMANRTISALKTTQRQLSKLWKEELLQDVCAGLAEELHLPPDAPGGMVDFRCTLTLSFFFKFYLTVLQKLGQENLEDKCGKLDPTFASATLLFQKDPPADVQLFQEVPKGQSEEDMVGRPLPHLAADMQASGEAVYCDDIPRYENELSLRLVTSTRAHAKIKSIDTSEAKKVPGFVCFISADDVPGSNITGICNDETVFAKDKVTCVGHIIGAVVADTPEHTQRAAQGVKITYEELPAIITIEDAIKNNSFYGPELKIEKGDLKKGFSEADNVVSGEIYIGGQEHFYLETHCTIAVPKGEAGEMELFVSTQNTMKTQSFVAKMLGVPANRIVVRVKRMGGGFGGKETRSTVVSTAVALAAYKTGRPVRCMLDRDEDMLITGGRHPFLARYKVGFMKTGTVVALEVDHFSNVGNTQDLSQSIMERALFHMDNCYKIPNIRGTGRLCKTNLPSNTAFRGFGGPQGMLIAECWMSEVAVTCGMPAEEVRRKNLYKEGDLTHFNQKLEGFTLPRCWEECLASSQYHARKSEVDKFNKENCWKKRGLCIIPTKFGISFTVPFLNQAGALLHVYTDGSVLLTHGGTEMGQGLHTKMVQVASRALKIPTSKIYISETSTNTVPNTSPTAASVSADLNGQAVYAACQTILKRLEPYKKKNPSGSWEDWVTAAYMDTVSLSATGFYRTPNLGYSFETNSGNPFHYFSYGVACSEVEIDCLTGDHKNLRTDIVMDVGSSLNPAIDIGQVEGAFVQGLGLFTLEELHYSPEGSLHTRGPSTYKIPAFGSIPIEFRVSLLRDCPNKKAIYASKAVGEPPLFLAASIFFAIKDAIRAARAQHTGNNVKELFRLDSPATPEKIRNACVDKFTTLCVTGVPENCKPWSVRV

**Q.** For `Cc1nc(-c2ccc(OCC(C)C)c(C#N)c2)sc1C(=O)O` [febuxostat], which EC50 (xanthine oxidase (XO) [1]) is on record?
**A.** Its EC50 is 405 nM.

**Q.** What about the “Febuxostat EC50 difference, healthy volunteers versus hyperuricemic patients” value (xanthine oxidase (XO) [1]; human, in vivo) of the same compound?
**A.** The value was “no differences; also recorded: not found to be significantly different”.

**Q.** And the “Emax (maximum inhibition of uric acid production)” value (xanthine oxidase (XO) [2])?
**A.** The value was 1.

**Q.** With `O=c1[nH]c(=O)c2c[nH]nc2[nH]1` [oxypurinol] as the compound, how does the “Decrease of oxypurinol exposure when administered together with verinurad” value ([3]; 12 mg verinurad, according to the model) read?
**A.** The value was “approximately 30%”.

**Q.** And the Vd ([3]; human, in vivo, oral, read-out: Central volume of distribution)?
**A.** Its Vd is 45.7 L.

**Q.** What about the Absorption rate constant ([3]; oxypurinol after allopurinol dosing, popPK estimate) of the same compound?
**A.** The Absorption rate constant was 0.3343 h⁻¹.

**Q.** What about the EC50 (xanthine oxidase (XO) [1]; plasma concentration giving half-maximal inhibition of production rate, typical value, read-out: EC50 (reducing uric acid production) (converted)) of the same compound?
**A.** Its EC50 is 85700 nM.

**Q.** What about the “Emax (maximum inhibition of uric acid production)” value (xanthine oxidase (XO) [2]) of the same compound?
**A.** The value was 0.84.

**Q.** Which “Emax (maximum increase in fractional excretion of uric acid)” value (URAT1 [4]) does the source give for `CC(C)(Sc1ccncc1-c1ccc(C#N)c2ccccc12)C(=O)O` [verinurad] here?
**A.** The value was 0.7.

**Q.** What about the EC50 (URAT1 [5]; plasma concentration giving half-maximal inhibition of reabsorption, typical value, healthy volunteers, read-out: Verinurad EC50 (reducing uric acid reuptake) (converted)) of the same compound?
**A.** Its EC50 is 83.2 nM and 84.4 nM.

**Q.** And the EC50 (URAT1 [5]; plasma concentration, symptomatic hyperuricemic (gout) patients, read-out: Verinurad EC50, symptomatic hyperuricemic (gout) subjects (converted))?
**A.** The EC50 was 106 nM and 107 nM.

**Q.** And the “Verinurad EC50 difference, asymptomatic hyperuricemic patients versus healthy volunteers” value (URAT1 [5]; studies D5495C00001 and D5495C00007)?
**A.** Its value is “no significant difference”.
